Assay results from patent publication US20130150598A1, “USE OF 25-HYDROXY-VITAMIN D3 TO AFFECT HUMAN MUSCLE PHYSIOLOGY” (DSM IP ASSETS B.V., priority 2008, published 2013).

Legend:
[1] = at the safe upper level of 250 μg/day; cited from earlier work
C57BL/6J mice = test: Muscle hypertrophy model (gastrocnemius removal) and endurance exercise capacity test; assay type: in vivo
Text: The objective of this study was to test the effects of 25-OH D3 in a muscle hypertrophy model and in an endurance exercise capacity test in C57BL/6J mice. It is recognized in the art that removal of the gastrocnemius muscle induces compensatory hypertrophy in the soleus and plantaris muscles by multiple mechanisms leading to improved muscle strength and leg power.
Two groups of 10 animals were anesthetized and the left hindlimb of the animals was fixed. All animals received an analgesic. A small incision was made through the skin over the gastrocnemius muscle. The complete gastrocnemius muscle and the tendons were exposed. Both heads of the gastrocnemius muscle were carefully dissected from the underlying intact muscles and care was taken not to rupture nerves and vessels. The skin was closed with a silk suture and the animals were returned into the cages. After recovering from anesthesia the animals could move directly without problems in their cages. Animals were treated for three weeks by gavage with 25-OH D3 at a daily dosage of 50 μg/kg and the control group received vehicle. At the end of the study endurance exercise capacity of all animals was tested on a rodent treadmill.

[2] = system: gastrocnemius muscle gene expression (mRNA); test: Gene chip analysis of gastrocnemius muscle in hindlimb unloaded (tail suspension) skeletal muscle atrophy model; assay type: in vivo, BalbC mice; conditions: for Differentially expressed muscle genes compared to HU: selected skeletal muscle genes
Text: Initially this model was established in rats for simulating spaceflight in humans and is commonly used in other scientific fields to study the loss of skeletal muscle mass or bone. The results are considered indicative of human conditions such as sarcopenia (degenerative loss of skeletal muscle mass and strength during the process of ageing) or immobilization of skeletal muscle (e.g. after prolonged bed rest due to fractures, surgery or trauma). Methods For our study, nine month old BalbC female mice were randomized at the beginning of the study into four groups with 10 animals per group • 1. […] The animals were placed in special cages for duration of seven days; all mice were housed separately and had free access to feed and water ad libidum. […] At the end of the study the gastrocnemius muscle was taken out and directly frozen in liquid nitrogen for further analysis. […] Total RNA was isolated using the commonly used Trizol protocol. The RNA was quantified by using spectrophotometric analysis. The integrity of total RNA samples was also assessed qualitatively on an Agilent 2100 Bioanalyzer. RNA was then prepared for the one cycle cDNA synthesis. A poly-A RNA control is used for this step to provide exogenous positive controls to monitor the entire eukaryotic target labelling process. The first cDNA synthesis is done, and after the second strand cDNA synthesis the cDNA is cleaned up of double-stranded cDNA. A biotin labelled cRNA is then synthesised, cleaned up and quantified using a spectrophotometer at 260/280 nm. It is important that cRNA target is fragmented before hybridization onto a GeneChip probe arrays to obtain optimal assay sensitivity. After fragmentation the probes are hybridized on the chips (Affymetrix Mouse 430-2 chips). The chips are washed and stained in the fluidics station of Affymetrix and scanned in the gene chip scanner. The data is then transferred from the scanner for further analysis using software from Genedata (Expressionist 5.0: […] Analyst). Data interpretation and pathway analysis was done with the online version of the GeneGo Metacore package ([…] evaluates microarray data for quality issues and flags problematic measurements. It provides a set of normalization algorithms and validated condensing methods to automatically pre-process and summarize raw microarray data for subsequent statistical analysis.

[3] = system: healthy, postmenopausal women; test: Clinical trial: muscle function (repeated sit-to-stand, timed up & go); assay type: in vivo, human; conditions: for Muscle function, repeated sit-to-stand, change vs. baseline / Muscle function, timed-up-and-go, change vs. baseline: daily 20 μg per day / weekly 140 μg per week, oral
Text: (§1) Each group included five subjects. They are followed for four months in Zurich, Switzerland during the winter.
(§2) Equimolar quantities of both substances were investigated. […] As the maximum pre-existing baseline concentration of 25-OH D3 will be 50 nmol/L, it is not anticipated that subjects will approach the range where disturbance in Ca^2+ homeostasis has been observed.
(§3) Each dosage is consumed orally at breakfast. The duration of the study is four months for the “Daily” and “Weekly” groups. Subjects enrolled in the “Bolus” group consume orally a single dosage at the second study visit.
(§4) Muscle strength and function were assessed by the following standard performance tests: knee flexor and extensor strength, repeated sit-to-stand test and timed up & go (TUG) in Week 1 on visit 2 (baseline) and at study end on visit 15. Muscle strength was measured as knee extensor and flexor in Newtons (kiloponds). TUG is a measure of functional mobility including muscle strength, gait speed, and balance and is assessed in seconds. The repeated sit-to-stand is a functional test and measured in seconds.

[4] = system: healthy, postmenopausal women; test: Clinical trial: muscle strength (knee extensor and flexor strength); assay type: in vivo, human; conditions: 4 months; for Muscle strength, knee extension (best value), change vs. baseline / Muscle strength, knee extension (mean value), change vs. baseline / Muscle strength, knee flexion (best value), change vs. baseline / Muscle strength, knee flexion (mean value), change vs. baseline: daily 20 μg per day / weekly 140 μg per week, oral
Text: as §1, §2, §3, §4

[5] = GLM least square means, % time needed adjusted for baseline function, age, BMI, 4 months
[6] = GLM least square means, % improvement adjusted for baseline strength, age, BMI

Vitamin D
Blood concentration of 25-hydroxyvitamin D after ingestion as dietary supplement [1]: about 200 nmol/L

C=C1CC[C@H](O)C/C1=C/C=C1\CCC[C@]2(C)[C@@H]([C@H](C)CCCC(C)(C)O)CC[C@@H]12 [25-OH D3, 25-hydroxyvitamin D3]
Soleus-Plantaris muscle weight/body weight (C57BL/6J mice; 50 μg/kg/day gavage, 3 weeks, control 1.82): 1.94 mg/g | Soleus wet weight (C57BL/6J mice; 50 μg/kg/day gavage, 3 weeks, control 5.25): 6.37 mg | Plantaris wet weight (C57BL/6J mice; 50 μg/kg/day gavage, 3 weeks, control 31.68): 33.24 mg | Muscle cross-sectional area (C57BL/6J mice; computer tomography, 50 μg/kg/day, 3 weeks, control 19.90): 20.98 mm^2 | Total leg cross-sectional area (C57BL/6J mice; computer tomography, 50 μg/kg/day, 3 weeks, control 22.78): 24.04 mm^2 | Skeletal mass by computer tomography of muscle and total leg area (C57BL/6J mice; in words): increases skeletal mass | Soleus-plantaris muscle weight/body weight ratio compared to control (C57BL/6J mice; in words): increased | Wet weight of the soleus and plantaris muscles compared to control animals (C57BL/6J mice; in words): increased | Endurance exercise capacity compared to control mice (C57BL/6J mice; in words, longer running distance and time): increased endurance exercise capacity | Running time (C57BL/6J mice; rodent treadmill, 50 μg/kg/day, 3 weeks, control 37.6): 41.0 min | Running distance (C57BL/6J mice; rodent treadmill, 50 μg/kg/day, 3 weeks, control 986.0): 1078.4 m | Share of the group's differentially expressed probe sets also differentially expressed in 25-OH D3+Vitamin D3 group ([2]; Venn overlap, FIG. 2 / FIG. 3): ~61% | Differentially expressed muscle genes compared to HU [2]: Desmin; dystonin; myocyte enhancer factor 2A; | Muscle function, repeated sit-to-stand, change vs. daily/weekly Vitamin D3 [3, 5]: 13.9% | Muscle function, timed-up-and-go, change vs. daily/weekly Vitamin D3 [3, 5]: 8.4% | Muscle function, repeated sit-to-stand, change vs. baseline ([3]; 4 months): 0.63 s | Muscle function, timed-up-and-go, change vs. baseline ([3]; 4 months): 0.27 s | Likelihood of maintaining or improving lower extremity strength and function compared to Vitamin D3 ([3]; unadjusted analysis across four lower extremity tests): 2.8 fold | Muscle strength, knee extension (best value), change vs. daily/weekly Vitamin D3 [4, 6]: 17.6% | Muscle strength, knee extension (mean value), change vs. daily/weekly Vitamin D3 [4, 6]: 17.0% | Muscle strength, knee flexion (best value), change vs. daily/weekly Vitamin D3 [4, 6]: 4.7% | Muscle strength, knee flexion (mean value), change vs. daily/weekly Vitamin D3 [4, 6]: 3.1% | Muscle strength, knee extension (best value), change vs. baseline [4]: 13.6 Newton | Muscle strength, knee extension (mean value), change vs. baseline [4]: 13.0 Newton | Muscle strength, knee flexion (best value), change vs. baseline [4]: 7.2 Newton | Muscle strength, knee flexion (mean value), change vs. baseline [4]: 7.9 Newton

C=C1CC[C@H](O)C/C1=C/C=C1\CCC[C@]2(C)[C@@H]([C@H](C)CCCC(C)C)CC[C@@H]12 [Vitamin D3, cholecalciferol]
Differentially expressed probe sets for genes against HU control group ([2]; 50 μg/kg/bw each, gavage twice, 7 days hindlimb unloading, Affymetrix Mouse 430-2): 385 | Number of the group's differentially expressed probe sets also differentially expressed in 25-OH D3+Vitamin D3 group ([2]; Venn overlap, FIG. 2 / FIG. 3): 177 | Share of the group's differentially expressed probe sets also differentially expressed in 25-OH D3+Vitamin D3 group ([2]; Venn overlap, FIG. 2 / FIG. 3): ~46% | Expression pattern Myosin, light chain kinase (Mylk) ([2]; gastrocnemius, microarray signal, HU control 749): 786 | Expression pattern Tropomyosin 1 (Tpm1) ([2]; gastrocnemius, microarray signal, HU control 1179): 2199 | Expression pattern Titin (Tnt) ([2]; gastrocnemius, microarray signal, HU control 11353): 11354 | Expression pattern Myomesin 1 (Myom 1) ([2]; gastrocnemius, microarray signal, HU control 84697): 99099 | Differentially expressed muscle genes compared to HU [2]: Desmin; myoneurin; tropomyosin 1, alpha; tropomyosin | Muscle function, repeated sit-to-stand, change vs. baseline ([3]; 4 months): 0.30 s | Muscle function, timed-up-and-go, change vs. baseline ([3]; 4 months): -0.46 s | Muscle strength, knee extension (best value), change vs. baseline [4]: −24.8 Newton | Muscle strength, knee extension (mean value), change vs. baseline [4]: −23.7 Newton | Muscle strength, knee flexion (best value), change vs. baseline [4]: 2.4 Newton | Muscle strength, knee flexion (mean value), change vs. baseline [4]: 3.6 Newton
